Reference: patent publication US20240208992A1, “MACROCYCLES AS CFTR MODULATORS” (Idorsia Pharmaceuticals Ltd, priority 2021, published 2024)

Biological target: human F508del-CFTR (Homo sapiens, UniProt P13569, DEL508-508)
Test: F508del-CFTR cell surface expression (corrector activity), DiscoveRx ß-galactosidase complementation chemiluminescence assay in recombinant U2OS cell line;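 also: U2OS cells co-expressing ProLink-tagged F508del-CFTR and a membrane-anchored enzyme acceptor, where more surface CFTR restores β-galactosidase activity measured by chemiluminescence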
Conditions: for EC50: EC50, F508del-CFTR cell surface expression, U2OS cells, 16h compound incubation, geomean values; for Emax: U2OS, in relation to Emax of corrector lumacaftor (=100%), arithmetic mean values

Chain of human F508del-CFTR (P13569 with tags, fused parts or gaps DEL508-508): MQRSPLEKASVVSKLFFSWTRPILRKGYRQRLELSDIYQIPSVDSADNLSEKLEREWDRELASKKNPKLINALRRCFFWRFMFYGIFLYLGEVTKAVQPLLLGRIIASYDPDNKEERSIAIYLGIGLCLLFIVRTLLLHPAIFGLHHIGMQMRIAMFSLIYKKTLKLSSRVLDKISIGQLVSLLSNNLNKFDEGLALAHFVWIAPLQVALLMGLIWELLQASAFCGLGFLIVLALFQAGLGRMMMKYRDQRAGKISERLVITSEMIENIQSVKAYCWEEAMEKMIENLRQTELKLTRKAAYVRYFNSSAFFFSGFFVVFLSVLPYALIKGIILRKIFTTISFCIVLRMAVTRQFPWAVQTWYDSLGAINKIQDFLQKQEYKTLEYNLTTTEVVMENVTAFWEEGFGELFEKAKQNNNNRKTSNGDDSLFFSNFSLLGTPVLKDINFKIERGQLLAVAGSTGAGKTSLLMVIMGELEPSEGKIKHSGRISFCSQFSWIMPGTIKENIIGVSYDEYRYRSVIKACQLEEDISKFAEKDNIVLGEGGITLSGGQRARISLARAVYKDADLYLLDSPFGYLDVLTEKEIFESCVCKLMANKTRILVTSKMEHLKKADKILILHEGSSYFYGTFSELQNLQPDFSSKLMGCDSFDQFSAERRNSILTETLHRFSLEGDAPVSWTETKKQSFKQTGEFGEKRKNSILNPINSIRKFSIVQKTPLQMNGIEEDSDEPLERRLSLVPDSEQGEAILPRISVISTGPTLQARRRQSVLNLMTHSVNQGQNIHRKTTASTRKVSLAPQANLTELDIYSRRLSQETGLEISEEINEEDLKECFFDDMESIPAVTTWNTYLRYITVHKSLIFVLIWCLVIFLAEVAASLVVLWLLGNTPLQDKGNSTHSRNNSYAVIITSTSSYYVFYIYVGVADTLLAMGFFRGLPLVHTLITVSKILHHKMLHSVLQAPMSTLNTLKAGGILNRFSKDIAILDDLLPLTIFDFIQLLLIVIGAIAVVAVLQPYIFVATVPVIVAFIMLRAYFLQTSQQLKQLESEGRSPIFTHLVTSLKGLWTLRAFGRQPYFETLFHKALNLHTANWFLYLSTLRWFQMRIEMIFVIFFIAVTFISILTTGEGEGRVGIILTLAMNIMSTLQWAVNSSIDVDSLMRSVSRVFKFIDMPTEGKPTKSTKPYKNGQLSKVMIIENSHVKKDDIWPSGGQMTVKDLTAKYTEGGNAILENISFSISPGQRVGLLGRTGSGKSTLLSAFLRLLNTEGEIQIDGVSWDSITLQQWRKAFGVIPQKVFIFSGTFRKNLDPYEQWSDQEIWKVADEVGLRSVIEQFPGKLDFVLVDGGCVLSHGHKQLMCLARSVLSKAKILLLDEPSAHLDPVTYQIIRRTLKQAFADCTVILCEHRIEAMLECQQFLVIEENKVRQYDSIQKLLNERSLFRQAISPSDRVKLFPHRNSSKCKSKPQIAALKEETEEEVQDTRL

SMILES	EC50	Emax
CC(C)C[C@H]1C(=O)N2CCCC[C@@H]2C(=O)N[C@H](Cc2ccccc2)COc2cnc3c(F)cccc3c2C(=O)N[C@H](C(=O)NCCc2cc(C3CC3)on2)CC(=O)N1C [Example 638, (9S,13S,19aR,22R)-22-benzyl-N-(2-(5-cyclopropylisoxazol-3-yl)ethyl)-3-fluoro-13-isobutyl-12-methyl-7,11,14,20-tetraoxo-7,8,9,10,11,12,13,14,17,18,19,19a,20,21,22,23-hexadecahydro-16H-pyrido[2′,11:6,7][1]oxa[4,7,10,14]tetraazacycloheptadecino[17,16-c]quinoline-9-carboxamide]	182 nM	297%
CC(C)C[C@H]1C(=O)N2CCCC[C@@H]2C(=O)N[C@H](Cc2ccccc2)COc2cnc3ccc(F)cc3c2C(=O)N[C@H](C(=O)NCCc2cc(C3CC3)on2)CC(=O)N1C [Example 639, (9S,13S,19aR,22R)-22-benzyl-N-(2-(5-cyclopropylisoxazol-3-yl)ethyl)-5-fluoro-13-isobutyl-12-methyl-7,11,14,20-tetraoxo-7,8,9,10,11,12,13,14,17,18,19,19a,20,21,22,23-hexadecahydro-16H-pyrido[2′,1′:6,7][1]oxa[4,7,10,14]tetraazacycloheptadecino[17,16-c]quinoline-9-carboxamide]	173 nM	305%
CC(C)C[C@H]1C(=O)N2CCCC[C@@H]2C(=O)N[C@H](Cc2ccccc2)COc2cnc3ccc(F)cc3c2C(=O)N[C@H](C(=O)NCCc2cc(C3CC3)no2)CC(=O)N1C [Example 640, (9S,13S,19aR,22R)-22-benzyl-N-(2-(3-cyclopropylisoxazol-5-yl)ethyl)-5-fluoro-13-isobutyl-12-methyl-7,11,14,20-tetraoxo-7,8,9,10,11,12,13,14,17,18,19,19a,20,21,22,23-hexadecahydro-16H-pyrido[2′,11:6,7][1]oxa[4,7,10,14]tetraazacycloheptadecino[17,16-c]quinoline-9-carboxamide]	132 nM	339%
CC(C)C[C@H]1C(=O)N2CCCC[C@@H]2C(=O)N[C@H](Cc2ccccc2)COc2cnc3ccc(F)cc3c2C(=O)N[C@H](C(=O)NCCc2nc(C3CC3)no2)CC(=O)N1C [Example 641, (9S,13S,19aR,22R)-22-benzyl-N-(2-(3-cyclopropyl-1,2,4-oxadiazol-5-yl)ethyl)-5-fluoro-13-isobutyl-12-methyl-7,11,14,20-tetraoxo-7,8,9,10,11,12,13,14,17,18,19,19a,20,21,22,23-hexadecahydro-16H-pyrido[2′,1′:6,7][1]oxa[4,7,10,14]tetraazacycloheptadecino[17,16-c]quinoline-9-carboxamide]	87 nM	305%
CC(C)C[C@H]1C(=O)N2CCCC[C@@H]2C(=O)N[C@H](Cc2ccccc2)COc2cnc3ccccc3c2C(=O)N[C@H](C(=O)NCCc2cc(C3CC3)no2)CC(=O)N1C [Example 642, (9S,13S,19aR,22R)-22-benzyl-N-(2-(3-cyclopropylisoxazol-5-yl)ethyl)-13-isobutyl-12-methyl-7,11,14,20-tetraoxo-7,8,9,10,11,12,13,14,17,18,19,19a,20,21,22,23-hexadecahydro-16H-pyrido[2′,1′:6,7][1]oxa[4,7,10,14]tetraazacycloheptadecino[17,16-c]quinoline-9-carboxamide]	168 nM	366%
CC(C)C[C@H]1C(=O)N2CCOC[C@@H]2C(=O)N[C@H](Cc2ccccc2)COc2cnc3ccc(F)cc3c2C(=O)N[C@H](C(=O)NCCc2cc(C3CC3)on2)CC(=O)N1C [Example 643, (9S,13S,19aR,22R)-22-benzyl-N-(2-(5-cyclopropylisoxazol-3-yl)ethyl)-5-fluoro-13-isobutyl-12-methyl-7,11,14,20-tetraoxo-7,8,9,10,11,12,13,14,16,17,19,19a,20,21,22,23-hexadecahydro-[1,4]oxazino[3′,4′:6,7][1]oxa[4,7,10,14]tetraazacycloheptadecino[17,16-c]quinoline-9-carboxamide]	220 nM	270%
CC(C)C[C@H]1C(=O)N2CCOC[C@@H]2C(=O)N[C@H](Cc2ccccc2)COc2cnc3ccc(F)cc3c2C(=O)N[C@H](C(=O)NCCc2cc(C3CC3)no2)CC(=O)N1C [Example 644, (9S,13S,19aR,22R)-22-benzyl-N-(2-(3-cyclopropylisoxazol-5-yl)ethyl)-5-fluoro-13-isobutyl-12-methyl-7,11,14,20-tetraoxo-7,8,9,10,11,12,13,14,16,17,19,19a,20,21,22,23-hexadecahydro-[1,4]oxazino[3′,4′:6,7][1]oxa[4,7,10,14]tetraazacycloheptadecino[17,16-c]quinoline-9-carboxamide]	277 nM	270%
CC(C)C[C@H]1C(=O)N2CCOC[C@@H]2C(=O)N[C@H](Cc2ccccc2)COc2cnc3ccc(F)cc3c2C(=O)N[C@H](C(=O)NCCc2nc(C3CC3)no2)CC(=O)N1C [Example 645, (9S,13S,19aR,22R)-22-benzyl-N-(2-(3-cyclopropyl-1,2,4-oxadiazol-5-yl)ethyl)-5-fluoro-13-isobutyl-12-methyl-7,11,14,20-tetraoxo-7,8,9,10,11,12,13,14,16,17,19,19a,20,21,22,23-hexadecahydro-[1,4]oxazino[3′,4′:6,7][1]oxa[4,7,10,14]tetraazacycloheptadecino[17,16-c]quinoline-9-carboxamide]	289 nM	211%
CCN1C(=O)C[C@@H](C(=O)NCCc2nc(C3CC3)no2)NC(=O)c2c(cnc3ccccc23)OC[C@@H](Cc2ccccc2)NC(=O)[C@H]2CCCCN2C(=O)[C@@H]1CC(C)C [Example 646, (9S,13S,19aR,22R)-22-benzyl-N-(2-(3-cyclopropyl-1,2,4-oxadiazol-5-yl)ethyl)-12-ethyl-13-isobutyl-7,11,14,20-tetraoxo-7,8,9,10,11,12,13,14,17,18,19,19a,20,21,22,23-hexadecahydro-16H-pyrido[2′,1′:6,7][1]oxa[4,7,10,14]tetraazacycloheptadecino[17,16-c]quinoline-9-carboxamide]	158 nM	201%
COc1cccc(CCNC(=O)[C@@H]2CC(=O)N(C)[C@@H](CC(C)C)C(=O)N(C)CC(=O)N[C@H](Cc3ccccc3)COc3cnc(OC)cc3C(=O)N2)c1 [Example 647, (3R,9S,13S)-3-benzyl-9-isobutyl-17-methoxy-N-(3-methoxyphenethyl)-7,10-dimethyl-5,8,11,15-tetraoxo-2,3,4,5,6,7,8,9,10,11,12,13,14,15-tetradecahydropyrido[4,3-p][1]oxa[4,7,10,14]tetraazacycloheptadecine-13-carboxamide]	820 nM	182%
COc1cc2c(cn1)OC[C@@H](Cc1ccccc1)NC(=O)C1(CC1)N(C)C(=O)[C@H](CC(C)C)N(C)C(=O)C[C@@H](C(=O)NCCc1cc(C3CC3)no1)NC2=O [Example 648, (3′R,9′S,13′S)-3′-benzyl-N-(2-(3-cyclopropylisoxazol-5-yl)ethyl)-9′-isobutyl-17′-methoxy-7′,10′-dimethyl-5′,8′,11′,15′-tetraoxo-2′,3′,4′,5′,8′,9′,10′,11′,12′,13′,14′,15′-dodecahydro-7′H-spiro[cyclopropane-1,6′-pyrido[4,3-p][1]oxa[4,7,10,14]tetraazacycloheptadecine]-13′-carboxamide]	748 nM	159%
COc1cc2c(cn1)OC[C@@H](Cc1ccccc1)NC(=O)C1(CC1)N(C)C(=O)[C@H](CC(C)C)N(C)C(=O)C[C@@H](C(=O)NCCc1noc(C3CC3)n1)NC2=O [Example 649, (3′R,9′S,13′S)-3′-benzyl-N-(2-(5-cyclopropyl-1,2,4-oxadiazol-3-yl)ethyl)-9′-isobutyl-17′-methoxy-7′,10′-dimethyl-5′,8′,11′,15′-tetraoxo-2′,3′,4′,5′,8′,9′,10′,11′,12′,13′,14′,15′-dodecahydro-7′H-spiro[cyclopropane-1,6′-pyrido[4,3-p][1]oxa[4,7,10,14]tetraazacycloheptadecine]-13′-carboxamide]	908 nM	149%
COc1cccc(CCNC(=O)[C@@H]2CC(=O)N(C)[C@@H](CC(C)C)C(=O)N(C)C3(CC3)C(=O)N[C@H](Cc3ccccc3)COc3cnc(OC)cc3C(=O)N2)c1 [Example 650, (3′R,9′S,13′S)-3′-benzyl-9′-isobutyl-17′-methoxy-N-(3-methoxyphenethyl)-7′,10′-dimethyl-5′,8′,11′,15′-tetraoxo-2′,3′,4′,5′,8′,9′,10′,11′,12′,13′,14′,15′-dodecahydro-7′H-spiro[cyclopropane-1,6′-pyrido[4,3-p][1]oxa[4,7,10,14]tetraazacycloheptadecine]-13′-carboxamide]	596 nM	214%
CC(C)C[C@H]1C(=O)N2CCCC[C@@H]2C(=O)N[C@H](Cc2ccccc2)COc2cccc(F)c2C(=O)N[C@H](C(=O)NCCc2ccc(-n3nccn3)cc2)CC(=O)N1C [Example 651, (7S,11S,20R,22aR)-N-(4-(2H-1,2,3-triazol-2-yl)phenethyl)-20-benzyl-14-fluoro-7-isobutyl-8-methyl-6,9,13,22-tetraoxo-1,3,4,6,7,8,9,10,11,12,13,19,20,21,22,22a-hexadecahydro-2H-benzo[p]pyrido[2,1-f][1]oxa[4,7,10,14]tetraazacycloheptadecine-11-carboxamide]	375 nM	127%
[2H]C1([2H])Oc2ccc3c(c2O1)C(=O)N[C@H](C(=O)NCCc1ccc(-n2nccn2)cc1)CC(=O)N(C)[C@@H](CC(C)C)C(=O)N1CCCC[C@@H]1C(=O)N[C@H](Cc1ccccc1)CO3 [Example 653, (8S,12S,18aR,21R)-N-(4-(2H-1,2,3-triazol-2-yl)phenethyl)-21-benzyl-12-isobutyl-11-methyl-6,10,13,19-tetraoxo-6,7,8,9,10,11,12,13,16,17,18,18a,19,20,21,22-hexadecahydro-15H-[1,3]dioxolo[4′,5′:5,6]benzo[1,2-p]pyrido[2,1-f][1]oxa[4,7,10,14]tetraazacycloheptadecine-4,4-d2-8-carboxamide]	332 nM	140%
